What was measured:
[1] = molecular target: T1, NR2B subunit containing NMDA receptor (Rattus norvegicus, UniProt P35439+Q00960); assay: Displacement of specific binding of racemic [3H](+)-(1S, 2S)-1-(4-hydroxy-phenyl)-2-(4-hydroxy-4-phenylpiperidino)-1-propanol ([3H]CP-101,606) from rat forebrain membranes; details: for Ratio [3H]Prazosin/[3H](+)-(1S, 2S)-1-(4-hydroxy-phenyl)-2-(4-hydroxy-4-phenylpiperidino)-1-propanol: selectivity for NR2B NMDA receptor over α1 adrenergic receptor, ratio of the two IC50, greater than three is considered selective
T1 construct: from rat forebrain membranes; from tissue; host or cells: forebrain membranes of adult male CD rats
Description: This affinity is assessed in a radioligand binding assay as described below.
The binding of racemic [^3H] […] Forebrains of adult male CD rats are homogenized in 0.32M sucrose at 4° C. The crude nuclear pellet is removed by centrifugation at 1,000×g for 10 min., and the supernatant centrifuged at 17,000×g for 25 min. The resulting pellet is resuspended in 5 mM Tris acetate pH 7.4 at 4° C. for 10 min. to lyse cellular particles and again centrifuged at 17,000×g. The resulting pellet is washed twice in Tris acetate, resuspended at 10 mg protein/ml and stored at −20° C. until use.
For binding assays, membranes are thawed, homogenized, and diluted to 0.5 mg protein/ml with 50 mM Tris HCl, pH 7.4. Compounds under study are added at various concentrations followed by racemic [^3H] […] Filters are washed for 10 s with ice cold Tris HCl buffer and the radioactivity trapped on the filter quantified by liquid scintillation spectroscopy. […] Specific binding is defined as total binding minus nonspecific binding.
(§1) Affinity for the NR2B subunit containing NMDA receptor is measured as the IC50 for displacement of specific binding of racemic [^3H]

α1-adrengergic receptor = assay: Displacement of specific binding of [3H]prazosin from rat forebrain membranes; details: 0.2 nM [3H]prazosin, IC50 for displacement of specific binding
Description: as §1
Forebrains of adult male Sprague Dawley rats are homogenized in 20 volumes of ice cold 50 mM Tris/HCl buffer (pH 7.7). The homogenate is centrifuged at 50,000 X g for 10 min. at 4° C. The pellet is resuspended and centrifuged under identical conditions and the final pellet is resuspended in 80 volumes of 50 mM Tris/HCl (pH 8.0) at 4° C.
For binding assays, compounds under study are added at various concentrations to 500 μg membrane protein in 1 ml of 50 mM Tris/HCl buffer, followed by [^3H]prazosin (Amersham, specific activity 33 Ci/mmol, 0.2 nM final concentration). Following incubation for 30 min at 25° C. in a shaking water bath, samples are filtered onto Whatman GFB glass fiber filters using a MB48R Cell Harvester (Brandel Research and Development Laboratories, Gaithersburg Md.). Filters are washed three times for 10 s with ice cold Tris HCl buffer and the radioactivity trapped on the filter quantified by liquid scintillation spectroscopy. Nonspecific binding is determined in parallel incubations containing 100 nM prazosin. Specific binding is defined as total binding minus nonspecific binding.

T1 sequence (Q00960 27-1482, other chains not shown): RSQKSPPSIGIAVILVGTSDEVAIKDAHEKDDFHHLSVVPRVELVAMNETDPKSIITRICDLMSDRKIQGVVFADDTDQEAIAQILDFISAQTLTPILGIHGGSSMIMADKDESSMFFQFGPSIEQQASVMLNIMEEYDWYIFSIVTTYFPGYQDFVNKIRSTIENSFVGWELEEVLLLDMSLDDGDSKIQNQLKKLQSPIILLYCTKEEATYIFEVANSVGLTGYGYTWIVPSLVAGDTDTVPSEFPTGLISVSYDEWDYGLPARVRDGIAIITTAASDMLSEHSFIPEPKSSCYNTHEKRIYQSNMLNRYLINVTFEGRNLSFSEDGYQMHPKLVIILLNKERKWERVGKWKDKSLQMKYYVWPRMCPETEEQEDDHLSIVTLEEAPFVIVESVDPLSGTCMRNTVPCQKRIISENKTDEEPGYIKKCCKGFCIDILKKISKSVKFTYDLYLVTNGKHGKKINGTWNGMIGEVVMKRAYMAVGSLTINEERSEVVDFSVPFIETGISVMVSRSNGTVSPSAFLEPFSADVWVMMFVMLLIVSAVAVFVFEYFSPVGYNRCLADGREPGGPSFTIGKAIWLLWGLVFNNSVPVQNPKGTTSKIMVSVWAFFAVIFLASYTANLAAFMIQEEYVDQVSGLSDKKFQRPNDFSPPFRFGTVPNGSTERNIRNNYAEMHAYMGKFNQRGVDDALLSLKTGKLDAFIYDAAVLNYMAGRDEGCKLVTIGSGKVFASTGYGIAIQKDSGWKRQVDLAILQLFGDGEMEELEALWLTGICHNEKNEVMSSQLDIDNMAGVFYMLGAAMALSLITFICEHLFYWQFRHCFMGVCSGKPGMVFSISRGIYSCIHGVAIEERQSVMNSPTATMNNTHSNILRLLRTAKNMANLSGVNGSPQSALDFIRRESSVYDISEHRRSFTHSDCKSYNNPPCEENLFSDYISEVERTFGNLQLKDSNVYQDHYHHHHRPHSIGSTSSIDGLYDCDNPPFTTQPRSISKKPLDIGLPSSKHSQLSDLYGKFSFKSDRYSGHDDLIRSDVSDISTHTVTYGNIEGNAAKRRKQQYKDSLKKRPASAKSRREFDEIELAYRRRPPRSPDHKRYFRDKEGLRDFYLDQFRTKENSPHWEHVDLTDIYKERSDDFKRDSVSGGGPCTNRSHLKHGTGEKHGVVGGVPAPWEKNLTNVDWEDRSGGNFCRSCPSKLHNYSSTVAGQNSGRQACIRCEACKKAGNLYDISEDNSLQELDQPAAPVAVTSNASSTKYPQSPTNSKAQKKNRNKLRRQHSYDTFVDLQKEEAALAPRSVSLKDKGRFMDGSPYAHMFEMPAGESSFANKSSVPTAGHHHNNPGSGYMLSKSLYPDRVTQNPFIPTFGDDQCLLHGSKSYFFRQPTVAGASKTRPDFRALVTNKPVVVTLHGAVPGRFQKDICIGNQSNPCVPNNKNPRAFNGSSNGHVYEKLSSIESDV

| Structure (SMILES) | Ratio [3H]Prazosin/[3H](+)-(1S, 2S)-1-(4-hydroxy-phenyl)-2-(4-hydroxy-4-phenylpiperidino)-1-propanol [1] | IC50 (α1-adrengergic receptor) [nM] | melting point [°C] | IC50 [1] [nM] |
| --- | --- | --- | --- | --- |
| Cc1cc([C@@H](OS(C)(=O)=O)[C@@H](C)N2CCC(O)(c3ccc(F)cc3)CC2)ccc1O (racemic) [(1R*, 2R*)-1-(4-hydroxy-3-methylphenyl)-2-(4-(4-fluorophenyl)-4-hydroxypiperidin-1-yl)-propan-1-ol-mesylate] | 714 | 10000 | – | – |
| Oc1ccc2c(c1)OCC(N1CCC(O)(c3ccc(F)cc3)CC1)[C@H]2O (stereo in doubt) | – | – | 159 to 160 | – |
| COc1cc([C@H](O)[C@H](C)N2CCC(O)(c3ccccc3)CC2)ccc1O [1S, 2S 1-(4-hydroxy-3-methoxyphenyl)-2-(4-hydroxy-4-phenyl-piperidin-1-yl)-propan-1-ol] | 86 | 8100 | – | 94 |
| C[C@@H]([C@@H](O)c1ccc(O)cc1)N1CCC(O)(c2ccccc2)CC1 [(1S,2S)-1-(4-hydroxyphenyl)-2-(4-hydroxy-4-phenylpiperidin-1-yl)-1-propanol] | – | 19500 | – | – |
| Oc1ccc2c(c1)OC[C@@H](N1CCC(O)(c3ccc(F)cc3)CC1)[C@H]2O [(3R,4S)-3-[4-(4-fluorophenyl)-4-hydroxy-piperidin-1-yl] -chroman-4,7-diol] | ≧555 | > 10000 | – | 18 ± 3 |
| OC(CN1CCC(Cc2ccc(F)cc2)CC1)c1ccc(Cl)cc1 (stereo not shown) [Eliprodil, reference compound] | 2.2 | 980 ± 220 | – | 450 ± 130 |

Reference: US20010007872A1, “METHOD OF TREATING ACUTE, CHRONIC AND/OR NEUROPATHIC PAIN” (priority 1998, published 2001)
